target: T1, human liver FBPase (Homo sapiens, UniProt P09467); experiment: FBPase assay (malachite green phosphate release); assay type: biochemical; conditions: recombinant human liver FBPase, 50 μM fructose-1,6-bisphosphate
T1 construct: made in house; host or cells: E. coli
T1 sequence (P09467 2-338 limits assumed): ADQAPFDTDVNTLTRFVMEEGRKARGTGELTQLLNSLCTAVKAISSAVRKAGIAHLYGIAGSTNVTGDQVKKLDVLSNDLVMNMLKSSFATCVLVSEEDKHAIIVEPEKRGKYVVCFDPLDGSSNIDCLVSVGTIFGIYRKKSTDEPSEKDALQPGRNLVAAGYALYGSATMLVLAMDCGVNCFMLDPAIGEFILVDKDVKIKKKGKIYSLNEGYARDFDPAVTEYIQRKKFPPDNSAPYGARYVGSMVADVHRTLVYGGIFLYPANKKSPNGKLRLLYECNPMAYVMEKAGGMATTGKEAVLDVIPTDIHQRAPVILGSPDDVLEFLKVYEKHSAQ
Protocol: The following tests were carried out for evaluating the inhibitory activity of the compounds of the present invention against human liver FBPase (Swissprot Data base reference PO9467, entry F16P_HUMAN).
Human liver FBPase cDNA (NM_000507) was purchased from Origene Technologies, Inc, subcloned in a vector for expression in E. Coli., and sequenced. Recombinant human liver FBPase (hlFBPase) was purified according to the following protocol that uses heat denaturation similarly to that described by El-Maghrabi et al. [El-Maghrabi, M. R. et al. “Isolation of a human liver fructose-1,6-bisphosphatase cDNA and expression of the protein in Escherichia coli.” J Biol Chem 268:9466-9472, 1993.]. Briefly, E. coli cells, transiently expressing very high levels of soluble and active human liver FBPase, were suspended in 20 mM Tris-HCl pH 7.5, 1 mM EDTA, 1 mM DTT and were lysed by French press. The soluble extract was heat denatured at 65° C. for 5 min, and insoluble, denatured proteins were removed by centrifugation. The extract was then applied to a BioRad Macro-Prep High Q column equilibrated with 20 mM Tris-HCl pH 7.5, 1 mM EDTA, 1 mM DTT and the flow-through (containing FBPase activity) was collected and applied to a BioRad Macro-Prep HS column equilibrated with 20 mM HEPES pH 7.2, 1 mM DTT. A gradient of increasing NaCl concentration was then applied to the HS column and fractions were collected. Fractions containing active FBPase were pooled and further purified by size exclusion chromatography on a Sephacryl S200 column equilibrated in 20 mM Tris-HCl pH 7.5, 150 mM NaCl, 1 mM EDTA, 1 mM DTT. Purity of the enzyme preparation was >90% as assessed by Mass spectrometry.
Recombinant human liver FBPase (hlFBPase) activity was assayed through measuring the inorganic phosphate release that results from the hydrolysis of Fructose-1,6-bisphosphate by the enzyme. As described by Baykov A. A. et al. in [Baykov A. A et al., “Malachite Green procedure for orthophosphate determination and its use in alkaline phosphatase-based enzyme immunoassays”. Anal. Biochem., 171:266-270, 1988], inorganic phosphate can be readily quantified by spectrophotometry at 620 nm after complexation with ammonium molybdate/malachite green reagent. Enzymatic reaction was carried out with modifications of the procedure described by Wright S. W. et al. [Wright S. W. et al., “Anilinoquinazoline inhibitors of Fructose-1,6-bisphosphatase bind to a novel allosteric site: synthesis, in vitro characterization, and X-ray crystallography”. J. Med. Chem. 45:3865-3877, 2002]. Specifically, the reaction was carried out in 96 well plates in a final volume of 100 μl in the presence or in the absence of allosteric inhibitors. Reaction was started adding 25 ng of hlFBPase to the reaction mixture containing 50 mM HEPES-KOH buffer pH 7.2, 2 mM MgCl2, 2 mM EDTA, 1 mM DTT, 50 μM fructose-1,6-bisphosphate and 1% DMSO. After 50 minutes incubation at room temperature, the phosphate released was allowed to form a colored complex for 10 min by adding 150 μl of ammonium molybdate/malachite green reagent containing 0.03% malachite green, 0.2% ammonium molybdate, 0.05% Triton X-100 and 0.7 M H2SO4 in water that was stirred for 30 min at room temperature and filtered through 0.2 μm filter. Under these conditions, the assay was linear with time and able to detect FBPase inhibition after spectrophotometric read-out at 620 nm.

| SMILES | IC50 |
| --- | --- |
| Cc1cccc(S(=O)(=O)NC(=O)Nc2cc(Br)ccn2)c1 [Compound 60, N-[(4-Bromopyridin-2-yl)carbamoyl]-3-methylbenzenesulfonamide] | 2070 nM |
| CC(=O)OCCc1sc(S(=O)(=O)NC(=O)Nc2cc(C(F)(F)F)cc(C)n2)cc1C [Compound 111, 2-{3-methyl-5-[({[6-methyl-4-(trifluoromethyl)pyridin-2-yl]carbamoyl}amino)sulfonyl]-2-thienyl}ethyl acetate] | 345 nM |
| Nc1cc(Br)cc(NC(=O)NS(=O)(=O)c2ccc3c(c2)CCO3)n1 [Compound 34, N-[(6-Amino-4-bromopyridin-2-yl)carbamoyl]-2,3-dihydro-1-benzofuran-5-sulfonamide] | 481 nM |
| CSc1cc(N)nc(NC(=O)NS(=O)(=O)c2csc(C)c2)c1 [Compound 43, N-{[6-Amino-4-(methylthio)pyridin-2-yl]carbamoyl}-5-methylthiophene-3-sulfonamide] | 834 nM |
| CNC(=O)Nc1cc(OC)cc(NC(=O)NS(=O)(=O)c2csc(COC)c2)n1 [Compound 29, 5-(Methoxymethyl)-N-({4-methoxy-6-[(methylcarbamoyl)amino]pyridin-2-yl}carbamoyl)thiophene-3-sulfonamide] | 420 nM |
| COCCc1sc(S(=O)(=O)NC(=O)Nc2cc([S+](C)[O-])cc(NC(N)=O)n2)cc1C (centres unmarked) [Compound 95, N-{[6-(Carbamoylamino)-4-(methylsulfinyl)pyridin-2-yl]carbamoyl}-5-(2-methoxyethyl)-4-methylthiophene-2-sulfonamide] | 5080 nM |
| CNC(=O)Nc1cc(C(N)=O)cc(NC(=O)NS(=O)(=O)c2cc(C)c(CCOC)s2)n1 [Compound 101, 2-[({[5-(2-Methoxyethyl)-4-methyl-2-thienyl]sulfonyl}carbamoyl)amino]-6-[(methylcarbamoyl)amino]isonicotinamide] | > 100000 nM |
| Cc1cc(C(F)(F)F)cc(NC(=O)NS(=O)(=O)c2csc(C)c2)n1 [Compound 120, 5-Methyl-N-{[6-methyl-4-(trifluoromethyl)pyridin-2-yl]carbamoyl}thiophene-3-sulfonamide] | 831 nM |
| O=C(Nc1cc(Br)ccn1)NS(=O)(=O)c1ccc(Cl)cc1 [Compound 69, N-[(4-Bromopyridin-2-yl)carbamoyl]-4-chlorobenzenesulfonamide] | 3070 nM |
| COC(=O)c1cc(C(F)(F)F)cc(NC(=O)NS(=O)(=O)c2cc(C)c(CCOC(C)=O)s2)n1 [Compound 92, Methyl-6-[({[5-(2-acetoxyethyl)-4-methyl-2-thienyl]sulfonyl}carbamoyl)amino]-4-(trifluoromethyl)pyridine-2-carboxylate] | 1610 nM |
| COCCc1sc(S(=O)(=O)NC(=O)Nc2cc(SC)cc(C(=O)O)n2)cc1C [Compound 88, Sodium-6-[({[5-(2-methoxyethyl)-4-methyl-2-thienyl]sulfonyl}carbamoyl)amino]-4-(methylthio)pyridine-2-carboxylate] | 55400 nM |
| CNC(=O)Nc1cc(OC)cc(NC(=O)NS(=O)(=O)c2cc(C)c(OCCOC)s2)n1 [Compound 38, 5-(2-Methoxyethoxy)-N-({4-methoxy-6-[(methylcarbamoyl)amino]pyridin-2-yl}carbamoyl)-4-methylthiophene-2-sulfonamide] | 582 nM |
| COCCc1sc(S(=O)(=O)NC(=O)Nc2cc(SC)cc(NCCC(F)(F)F)n2)cc1C [Compound 75, 5-(2-Methoxyethyl)-4-methyl-N-({4-(methylthio)-6-[(3,3,3-trifluoropropyl)amino]pyridin-2-yl}carbamoyl)thiophene-2-sulfonamide] | 1690 nM |
| COCCOc1ccc(S(=O)(=O)NC(=O)Nc2cc(Br)cc(NCC(F)F)n2)cc1C [Compound 51, N-({4-Bromo-6-[(2,2-difluoroethyl)amino]pyridin-2-yl}carbamoyl)-4-(2-methoxyethoxy)-3-methylbenzenesulfonamide] | 1110 nM |
| COCCc1sc(S(=O)(=O)NC(=O)Nc2cc(OC)cc(NC(=O)N(C)C)n2)cc1C [Compound 59, N-({6-[(Dimethylcarbamoyl)amino]-4-methoxypyridin-2-yl}carbamoyl)-5-(2-methoxyethyl)-4-methylthiophene-2-sulfonamide] | 2030 nM |
| COCCc1sc(S(=O)(=O)NC(=O)Nc2cc(SC)cc(O)n2)cc1C [Compound 71, N-{[6-Hydroxy-4-(methylthio)pyridin-2-yl]carbamoyl}-5-(2-methoxyethyl)-4-methylthiophene-2-sulfonamide] | 4030 nM |
| COCCc1sc(S(=O)(=O)NC(=O)Nc2cc(Br)cc(N)n2)cc1C [Compound 10, N-[(6-Amino-4-bromopyridin-2-yl)carbamoyl]-5-(2-methoxyethyl)-4-methylthiophene-2-sulfonamide] | 125 nM |
| CNC(=O)Nc1cc(OC)cc(NC(=O)NS(=O)(=O)c2csc(C)c2)n1 [Compound 9, N-[[[4-methoxy-6-[[(methylamino)carbonyl]amino]-2-pyridinyl]amino]carbonyl]-5-methyl-3-thiophenesulfonamide] | 115 nM |
| CNC(=O)Nc1cc([S+](C)[O-])cc(NC(=O)NS(=O)(=O)c2cc(C)c(CCOC)s2)n1 (centres unmarked) [Compound 94, 5-(2-Methoxyethyl)-4-methyl-N-({6-[(methylcarbamoyl)amino]-4-(methylsulfinyl)pyridin-2-yl}carbamoyl)thiophene-2-sulfonamide] | 1600 nM |
| O=C(Nc1cc(Br)ccn1)NS(=O)(=O)c1cccc(Cl)c1 [Compound 55, N-[(4-Bromopyridin-2-yl)carbamoyl]-3-chlorobenzenesulfonamide] | 1550 nM |
| COCCc1sc(S(=O)(=O)NC(=O)Nc2cc(Br)cc(NC(N)=O)n2)cc1C [Compound 4, N-{[4-Bromo-6-(carbamoylamino)pyridin-2-yl]carbamoyl}-5-(2-methoxyethyl)-4-methylthiophene-2-sulfonamide] | 63 nM |
| Cc1cc(C(F)(F)F)cc(NC(=O)NS(=O)(=O)c2cc(C)c(CCO)s2)n1 [Compound 114, 5-(2-Hydroxyethyl)-4-methyl-N-{[6-methyl-4-(trifluoromethyl)pyridin-2-yl]carbamoyl}thiophene-2-sulfonamide] | 515 nM |
| CNC(=O)Nc1cc(OC)cc(NC(=O)NS(=O)(=O)c2cc3cc(OC)ccc3s2)n1 [Compound 13, 5-Methoxy-N-({4-methoxy-6-[(methylcarbamoyl)amino]pyridin-2-yl}carbamoyl)-1-benzothiophene-2-sulfonamide] | 148 nM |
| COCCc1sc(S(=O)(=O)NC(=O)Nc2cc(OC)cc(C#N)n2)cc1C [Compound 58, N-[(6-Cyano-4-methoxypyridin-2-yl)carbamoyl]-5-(2-methoxyethyl)-4-methylthiophene-2-sulfonamide] | 1960 nM |
| CNC(=O)Nc1cc(OC)cc(NC(=O)NS(=O)(=O)c2cc3ccc(OC)cc3s2)n1 [Compound 12, 6-Methoxy-N-({4-methoxy-6-[(methylcarbamoyl)amino]pyridin-2-yl}carbamoyl)-1-benzothiophene-2-sulfonamide] | 132 nM |
| CNC(=O)Nc1cc(Br)cc(NC(=O)NS(=O)(=O)c2csc(C)c2)n1 [Compound 3, N-({4-bromo-6-[(methylcarbamoyl)amino]pyridin-2-yl}carbamoyl)-5-methylthiophene-3-sulfonamide] | 59 nM |

— patent publication US8163778B2 (Hoffmann-LA Roche Inc., priority 2007, dated 2012)
